# Measurements: patent US20240325398A1, “COMBINATION THERAPIES” (Infinity Pharmaceuticals, Inc., priority 2014, published 2024)
# Columns and labels:
# Mino = test: Combination study, ATPLite 72 h, dose matrix (Synergy Score, CI50); details: combination with Compound 1
# KARPAS-299 = test: as above; details: combination with Compound 1
# HH = test: as above; format: cell-based; details: combination with Compound 1
# Procedure: The method is described as follows.
# Additive effect is CI=1.0. […] Antagonistic effect is CI>1.0.
# The Synergy Score is calculated as: […]
# OCI-Ly7 = test: as above; details: combination with Compound 1, 72 h
# Procedure: (§1) Cells are thawed from a liquid nitrogen preserved state. Once cells have been expanded and divide at their expected doubling times, screening begins. Cells are seeded in growth media in either black 1536-well or 384-well tissue culture treated plates. Cells are then equilibrated in assay plates via centrifugation and placed in incubators attached to the Dosing Modules at 37° C. for 24 hours before treatment. […] These Tzero (To) plates are read using ultra-sensitive luminescence on Envision plate readers (Perkin Elmer). Treated assay plates are incubated with compound for 72 hours. After 72 hours, plates are developed for endpoint analysis using ATPLite. All data points are collected via automated processes, quality controlled and analyzed using Zalicus software.
# The measure of effect in the experiment can be the inhibition of cellular response relative to the untreated level (vehicle alone). […] The inhibition ranges from 0% at the untreated level to 100% when T=0. Inhibition levels are negative for agents that actually increase levels.
# (§2) Growth Inhibition (GI) is used as a measure of cell viability. […] A GI reading of 100% represents complete growth inhibition—T72 compound-treated and T0 vehicle signals are matched. […] A GI reading of 200% represents complete death of all cells in the culture well. Compounds reaching an activity plateau of GI 200% are considered cytotoxic. GI is calculated by applying the following test and equation:
# (§3) Combination analysis data were collected in a 6×6 dose matrix. Synergy is calculated by comparing a combination's response to those of its single compound, against the drug-with-itself dose-additive reference model. Deviations from dose additivity may be assessed visually on an isobologram or numerically with a Combination Index (CI). […] Additive effect is CI=1.0. […] Antagonistic effect is CI>1.0.
# (§4) To measure combination effects in excess of Loewe additivity, a scalar measure to characterize the strength of synergistic interaction termed the Synergy Score is devised. The Synergy Score is calculated as:
# (§5) The fractional inhibition for each component agent and combination point in the matrix is calculated relative to the median of all vehicle-treated control wells. The Synergy Score equation integrates the experimentally-observed activity volume at each point in the matrix in excess of a model surface numerically derived from the activity of the component agents using the Loewe model for additivity. Additional terms in the Synergy Score equation (above) are used to normalize for various dilution factors used for individual agents and to allow for comparison of synergy scores across an entire experiment. The inclusion of positive inhibition gating or an Idata multiplier removes noise near the zero effect level, and biases results for synergistic interactions at that occur at high activity levels.
# (§6) Loewe Volume (Loewe Vol) is used to assess the overall magnitude of the combination interaction in excess of the Loewe additivity model. Loewe Volume is particularly useful when distinguishing synergistic increases in a phenotypic activity (positive Loewe Volume) versus synergistic antagonisms (negative Loewe Volume). […] This model defines additivity as a non-synergistic combination interaction where the combination dose matrix surface should be indistinguishable from either drug crossed with itself. The calculation for Loewe additivity is:
# GRANTA-519 = test: as above; details: combination with Compound 1
# NCI-H929 = test: as above; details: combination with Compound 1
# DOHH-2 = test: as above; details: combination with Compound 1, 72 h
# KARPAS-422 = test: as above; details: combination with Compound 1, 72 h
# OCI-Ly3 = test: as above; details: combination with Compound 1; OCI-Ly3; 72 h
# SU-DHL-10-epst = test: as above; details: combination with Compound 1, 72 h
# Farage = test: as above; details: combination with Compound 1; Farage; 72 h
# Procedure: as §1
# (§7) where T is treated cell count and V is untreated (vehicle) cell count (at 72 hours). I ranges from 0% (when T=V) to 100% (when T=0). […] The measure of effect in the experiment can be the inhibition of cellular response relative to the untreated level (vehicle alone). […] The inhibition ranges from 0% at the untreated level to 100% when T=0. Inhibition levels are negative for agents that actually increase levels. Other effect measures, such as an activity ratio r=T/V may be more appropriate for some assays. When activity ratios (e.g, fold increase over stimulated control) are being used, the effect can be measured using an induction 1=ln(T/V). With this definition, all effect expressions are the same as for inhibition.
# as §2, §3
# (§8) The isobologram was drawn by identifying the locus of concentrations that correspond to crossing the indicated inhibition level. This is done by finding the crossing point for each single agent concentration in a dose matrix across the concentrations of the other single agent. Practically, each vertical concentration CY is held fixed while a bisection algorithm is used to identify the horizontal concentration CX in combination with that vertical dose that gives the chosen effect level in the response surface Z(CX,CY). These concentrations are then connected by linear interpolation to generate the isobologram display. For synergistic interactions, the isobologram contour fall below the additivity threshold and approaches the origin, and an antagonistic interaction would lie above the additivity threshold. The error bars represent the uncertainty arising from the individual data points used to generate the isobologram. The uncertainty for each crossing point is estimated from the response errors using bisection to find the concentrations where Z−αZ(CX,CY) and Z+σZ(CX,CY) cross Icut, where αZ is the standard deviation of the residual error on the effect scale.
# as §4
# (§9) The fractional inhibition for each component agent and combination point in the matrix is calculated relative to the median of all vehicle-treated control wells.
# RPMI-8226 = test: as above; details: combination with Compound 1
# OMP-2 = test: as above; details: combination with Compound 1; OPM-2
# [1] = as above; details: combination with Compound 1; OPM-2
# U-2932 = test: as above; details: combination with Compound 1, 72 h
# RL = test: as above; details: combination with Compound 1, 72 h
# Procedure: as §1, §7, §2, §3, §4, §5
# (§10) Loewe Volume (Loewe Vol) is used to assess the overall magnitude of the combination interaction in excess of the Loewe additivity model. Loewe Volume is particularly useful when distinguishing synergistic increases in a phenotypic activity (positive Loewe Volume) versus synergistic antagonisms (negative Loewe Volume). […] This model defines additivity as a non-synergistic combination interaction where the combination dose matrix surface should be indistinguishable from either drug crossed with itself.
# TMD8 = test: as above; details: combination with Compound 1; TMD8; 72 h
# Procedure: as §1, §7, §2, §3, §8, §4, §9
# HBL-1 = test: as above; details: combination with Compound 1, 72 h
# Procedure: as §1, §7, §2, §3, §4, §5, §6
# WSU-NHL = test: as above; details: combination with Compound 1, 72 h
# Jeko-1 = test: as above; details: combination with Compound 1
# Procedure: as §1, §7, §2, §3, §4, §5, §10
# SU-DHL-4-epst = test: as above; details: combination with Compound 1, 72 h
compound,measurement,setting,value
COc1ccc(-c2ccc3c(N4CCOC[C@@H]4C)nc(N4CCOC[C@@H]4C)nc3n2)cc1CO [AZD 8055],CI50 growth inhibition,Mino,U (U=0.7 to <1)
same,CI50 inhibition,Mino,S (S=0.01 to <0.5)
same,Synergy Score growth inhibition,Mino,A2 (A2=1 to <3)
same,Synergy Score inhibition,Mino,A1 (A1=0.0001 to <1)
same,CI50 growth inhibition,KARPAS-299,W (W=≥1)
same,CI50 inhibition,KARPAS-299,U (U=0.7 to <1)
same,Synergy Score growth inhibition,KARPAS-299,A1 (A1=0.0001 to <1)
same,Synergy Score inhibition,KARPAS-299,A1 (A1=0.0001 to <1)
same,CI50 growth inhibition,HH,S (S=0.01 to <0.5)
same,CI50 inhibition,HH,S (S=0.01 to <0.5)
same,Synergy Score growth inhibition,HH,A3 (A3=>3)
same,Synergy Score inhibition,HH,A2 (A2=1 to <3)
same,CI50 growth inhibition,OCI-Ly7,S (S=0.01 to <0.5)
same,CI50 inhibition,OCI-Ly7,T (T=0.5 to <0.7)
same,Synergy Score growth inhibition,OCI-Ly7,A3 (A3=>3)
same,Synergy Score inhibition,OCI-Ly7,A2 (A2=1 to <3)
same,CI50 growth inhibition,GRANTA-519,T (T=0.5 to <0.7)
same,CI50 inhibition,GRANTA-519,U (U=0.7 to <1)
same,Synergy Score growth inhibition,GRANTA-519,A2 (A2=1 to <3)
same,Synergy Score inhibition,GRANTA-519,A1 (A1=0.0001 to <1)
same,CI50 growth inhibition,NCI-H929,W (W=≥1)
same,CI50 inhibition,NCI-H929,T (T=0.5 to <0.7)
same,Synergy Score growth inhibition,NCI-H929,A3 (A3=>3)
same,Synergy Score inhibition,NCI-H929,A2 (A2=1 to <3)
same,CI50 growth inhibition,DOHH-2,S (S=0.01 to <0.5)
same,CI50 inhibition,DOHH-2,S (S=0.01 to <0.5)
same,Synergy Score growth inhibition,DOHH-2,A3 (A3=>3)
same,Synergy Score inhibition,DOHH-2,A3 (A3=>3)
same,CI50 growth inhibition,KARPAS-422,S (S=0.01 to <0.5)
same,CI50 inhibition,KARPAS-422,S (S=0.01 to <0.5)
same,Synergy Score growth inhibition,KARPAS-422,A2 (A2=1 to <3)
same,Synergy Score inhibition,KARPAS-422,A2 (A2=1 to <3)
same,CI50 growth inhibition,OCI-Ly3,S (S=0.01 to <0.5)
same,CI50 inhibition,OCI-Ly3,T (T=0.5 to <0.7)
same,Synergy Score growth inhibition,OCI-Ly3,A2 (A2=1 to <3)
same,Synergy Score inhibition,OCI-Ly3,A1 (A1=0.0001 to <1)
same,CI50 growth inhibition,SU-DHL-10-epst,S (S=0.01 to <0.5)
same,CI50 inhibition,SU-DHL-10-epst,S (S=0.01 to <0.5)
same,Synergy Score growth inhibition,SU-DHL-10-epst,A3 (A3=>3)
same,Synergy Score inhibition,SU-DHL-10-epst,A3 (A3=>3)
same,CI50 growth inhibition,Farage,S (S=0.01 to <0.5)
same,CI50 inhibition,Farage,S (S=0.01 to <0.5)
same,Synergy Score growth inhibition,Farage,A3 (A3=>3)
same,Synergy Score inhibition,Farage,A3 (A3=>3)
same,CI50 growth inhibition,RPMI-8226,U (U=0.7 to <1)
same,CI50 inhibition,RPMI-8226,W (W=≥1)
same,Synergy Score growth inhibition,RPMI-8226,A2 (A2=1 to <3)
same,Synergy Score inhibition,RPMI-8226,A1 (A1=0.0001 to <1)
same,CI50 inhibition,OMP-2,W (W=≥1)
same,Synergy Score growth inhibition,OMP-2,A2 (A2=1 to <3)
same,Synergy Score inhibition,OMP-2,A1 (A1=0.0001 to <1)
same,CI50 growth inhibition,[1],U (U=0.7 to <1)
same,CI50 growth inhibition,U-2932,S (S=0.01 to <0.5)
same,CI50 inhibition,U-2932,U (U=0.7 to <1)
same,Synergy Score growth inhibition,U-2932,A2 (A2=1 to <3)
same,Synergy Score inhibition,U-2932,A2 (A2=1 to <3)
same,CI50 growth inhibition,RL,U (U=0.7 to <1)
same,CI50 inhibition,RL,U (U=0.7 to <1)
same,Synergy Score growth inhibition,RL,A2 (A2=1 to <3)
same,Synergy Score inhibition,RL,A2 (A2=1 to <3)
same,CI50 growth inhibition,TMD8,S (S=0.01 to <0.5)
same,CI50 inhibition,TMD8,S (S=0.01 to <0.5)
same,Synergy Score growth inhibition,TMD8,A3 (A3=>3)
same,Synergy Score inhibition,TMD8,A3 (A3=>3)
same,CI50 growth inhibition,HBL-1,S (S=0.01 to <0.5)
same,CI50 inhibition,HBL-1,T (T=0.5 to <0.7)
same,Synergy Score growth inhibition,HBL-1,A3 (A3=>3)
same,Synergy Score inhibition,HBL-1,A1 (A1=0.0001 to <1)
same,CI50 growth inhibition,WSU-NHL,T (T=0.5 to <0.7)
same,CI50 inhibition,WSU-NHL,S (S=0.01 to <0.5)
same,Synergy Score growth inhibition,WSU-NHL,A3 (A3=>3)
same,Synergy Score inhibition,WSU-NHL,A3 (A3=>3)
same,CI50 growth inhibition,Jeko-1,S (S=0.01 to <0.5)
same,CI50 inhibition,Jeko-1,T (T=0.5 to <0.7)
same,Synergy Score growth inhibition,Jeko-1,A3 (A3=>3)
same,Synergy Score inhibition,Jeko-1,A2 (A2=1 to <3)
same,CI50 growth inhibition,SU-DHL-4-epst,T (T=0.5 to <0.7)
same,CI50 inhibition,SU-DHL-4-epst,S (S=0.01 to <0.5)
same,Synergy Score growth inhibition,SU-DHL-4-epst,A3 (A3=>3)
same,Synergy Score inhibition,SU-DHL-4-epst,A3 (A3=>3)
Nc1ncn([C@@H]2O[C@H](CO)[C@@H](O)[C@H]2O)c(=O)n1 [Azacitidine],CI50 growth inhibition,Mino,S (S=0.01 to <0.5)
same,CI50 inhibition,Mino,S (S=0.01 to <0.5)
same,CI50 growth inhibition,KARPAS-299,W (W=≥1)
same,CI50 inhibition,KARPAS-299,W (W=≥1)
same,CI50 growth inhibition,HH,S (S=0.01 to <0.5)
same,CI50 inhibition,HH,S (S=0.01 to <0.5)
same,CI50 growth inhibition,OCI-Ly7,T (T=0.5 to <0.7)
same,CI50 inhibition,OCI-Ly7,T (T=0.5 to <0.7)
same,CI50 growth inhibition,GRANTA-519,U (U=0.7 to <1)
same,CI50 growth inhibition,NCI-H929,U (U=0.7 to <1)
same,CI50 inhibition,NCI-H929,U (U=0.7 to <1)
same,CI50 growth inhibition,DOHH-2,U (U=0.7 to <1)
same,CI50 inhibition,DOHH-2,U (U=0.7 to <1)
same,CI50 growth inhibition,KARPAS-422,T (T=0.5 to <0.7)
same,CI50 inhibition,KARPAS-422,U (U=0.7 to <1)
same,CI50 growth inhibition,OCI-Ly3,S (S=0.01 to <0.5)
same,CI50 growth inhibition,SU-DHL-10-epst,S (S=0.01 to <0.5)
same,CI50 inhibition,SU-DHL-10-epst,S (S=0.01 to <0.5)
same,CI50 growth inhibition,Farage,S (S=0.01 to <0.5)
same,CI50 inhibition,Farage,S (S=0.01 to <0.5)
same,CI50 growth inhibition,RPMI-8226,T (T=0.5 to <0.7)
same,CI50 inhibition,RPMI-8226,W (W=≥1)
same,CI50 inhibition,OMP-2,W (W=≥1)
same,CI50 growth inhibition,[1],S (S=0.01 to <0.5)
same,CI50 growth inhibition,U-2932,S (S=0.01 to <0.5)
same,CI50 inhibition,U-2932,W (W=≥1)
same,CI50 growth inhibition,RL,T (T=0.5 to <0.7)
same,CI50 inhibition,RL,U (U=0.7 to <1)
same,CI50 growth inhibition,TMD8,U (U=0.7 to <1)
same,CI50 inhibition,TMD8,U (U=0.7 to <1)
same,CI50 growth inhibition,HBL-1,S (S=0.01 to <0.5)
same,CI50 inhibition,HBL-1,W (W=≥1)
same,CI50 growth inhibition,WSU-NHL,T (T=0.5 to <0.7)
same,CI50 inhibition,WSU-NHL,S (S=0.01 to <0.5)
same,CI50 growth inhibition,Jeko-1,S (S=0.01 to <0.5)
same,CI50 inhibition,Jeko-1,T (T=0.5 to <0.7)
same,CI50 growth inhibition,SU-DHL-4-epst,S (S=0.01 to <0.5)
same,CI50 inhibition,SU-DHL-4-epst,S (S=0.01 to <0.5)
